≈ marks a conversion by molar mass, not a printed value. Where “and” joins values, the source holds several entries; their conditions need not be identical. Equal values may be shown once.
Tests used:
[1] = test system: Mycobacterium tuberculosis; assay: Antitubercular activity against Mycobacterium tuberculosis H37Rv at 6.25 ug/mL by broth microdilution method; format: functional
[2] = test system: Mycobacterium tuberculosis; assay: Antitubercular activity against Mycobacterium tuberculosis H37Rv by microplate alamar blue assay; format: functional
[3] = test system: Vero; assay: Cytotoxicity against african green monkey Vero cells after 72 hrs by MTT assay; format: cell-based; conditions: Chlorocebus sabaeus
[4] = Selectivity index, IC50 for african green monkey Vero cells to MIC for Mycobacterium tuberculosis H37Rv; format: functional
[5] = test system: Mycobacterium tuberculosis; assay: Antitubercular activity against Mycobacterium tuberculosis isolate UC0804 by microplate alamar blue assay; format: functional
[6] = test system: Mycobacterium tuberculosis; assay: Antitubercular activity against Mycobacterium tuberculosis isolate UC0803 by microplate alamar blue assay; format: functional
[7] = test system: Mycobacterium tuberculosis; assay: Antitubercular activity against Mycobacterium tuberculosis isolate UC0801 by microplate alamar blue assay; format: functional
[8] = test system: Mycobacterium tuberculosis; assay: Antitubercular activity against Mycobacterium tuberculosis isolate UC0802 by microplate alamar blue assay; format: functional
[9] = test system: Mycobacterium tuberculosis; assay: Antitubercular activity against Mycobacterium tuberculosis H37Rv assessed as CFU treated on day 7 measured after 14 days; format: functional, organism-based
[10] = test system: Vero; assay: Cytotoxicity against african green monkey Vero cells at > 2.5 ug/mL after 72 hrs by MTT assay; format: cell-based; conditions: Chlorocebus sabaeus

Row | Compound | inhibition at 6.25 µg/mL [1] [%] | MIC [2] | also measured
1 | Cc1cc(N/N=C/C2CCCCC2)c2cc3c(cc2n1)OCO3 | 9 | – | –
2 | COc1ccc(/C=N/Nc2cc(C)nc3cc(OC)ccc23)cc1 | 99 | 19.5 µM | –
3 | C(=N\Nc1ccnc2cc3c(cc12)OCO3)/C1CCCCC1 | 74 | – | –
4 | Cc1cc(N/N=C/c2ccc(O)cc2)c2cc3c(cc2n1)OCO3 | 100 | – | –
5 | COc1ccc(/C=N/Nc2ccnc3ccc(OC)cc23)cc1 | 100 | 10.2 µM | –
6 | COc1cccc(/C=N/Nc2cc(C)nc3cc4c(cc23)OCO4)c1 | 100 | 9.3 µM | –
7 | COc1ccc2c(N/N=C/c3ccc4ccccc4n3)ccnc2c1 | 99 | 9.5 µM | –
8 | COc1cccc2c(N/N=C/c3ccc(N(C)C)cc3)ccnc12 | 100 | 19.5 µM | –
9 | COc1ccc(/C=N/Nc2ccnc3cc4c(cc23)OCO4)cc1 | 100 | 4.8 µM | –
10 | COc1cccc2c(N/N=C/c3cccc4ccccc34)cc(C)nc12 | 99 | 9.3 µM | –
11 | COc1ccc2c(N/N=C/c3ccc[nH]3)ccnc2c1 | 99 | 11.8 µM | –
12 | COc1ccc2ccccc2c1/C=N/Nc1cc(C)nc2cc3c(cc12)OCO3 | 100 | – | –
13 | CCOc1ccc2c(N/N=C/c3ccc(OC)cc3)ccnc2c1 | 100 | 9.7 µM | –
14 | Cc1cc(N/N=C/c2ccccn2)c2cc3c(cc2n1)OCO3 | 74 | – | –
15 | COc1cccc2c(N/N=C/c3ccc4c(c3)OCO4)cc(C)nc12 | 95 | – | –
16 | Cc1cc(N/N=C/c2ccc3ccccc3c2)c2cc3c(cc2n1)OCO3 | 100 | – | –
17 | COc1ccc(/C=N/Nc2cc(C)nc3cc4c(cc23)OCO4)cc1 | 100 | 9.3 µM | –
18 | COc1ccc2c(N/N=C/c3ccc(N(C)C)cc3)ccnc2c1 | 100 | 4.9 µM | IC50 [3]: 0.26 µg/mL (≈ 0.811 µM); Selectivity Index [4]: 0.17
19 | CCN(CC)c1ccc(/C=N/Nc2cc(C)nc3cc4c(cc23)OCO4)cc1 | 100 | 8.3 µM | –
20 | NNC(=O)c1ccncc1 [ISONIAZID] | – | 0.36 µM and 0.05 µg/mL | MIC [5]: 0.05 µg/mL (≈ 0.365 µM); MIC [6]: 0.05 µg/mL (≈ 0.365 µM); MIC [7]: 0.05 µg/mL (≈ 0.365 µM); MIC [8]: 0.25 µg/mL (≈ 1.82 µM)

Row | Compound | inhibition at 6.25 µg/mL [1] [%] | MIC [2] | also measured
21 | CO[C@H]1/C=C/O[C@@]2(C)Oc3c(C)c(O)c4c(O)c(c(/C=N/N5CCN(C)CC5)c(O)c4c3C2=O)NC(=O)/C(C)=C\C=C\[C@H](C)[C@H](O)[C@@H](C)[C@@H](O)[C@@H](C)[C@H](OC(C)=O)[C@@H]1C [RIFAMPIN] | – | 0.037 µM | –
22 | COc1ccc(/C=N/Nc2ccnc3cc(OC)ccc23)cc1 | 100 | 9.8 µM | –
23 | COc1cccc2c(N/N=C/c3ccnc4ccccc34)cc(C)nc12 | 98 | 9.1 µM | –
24 | COc1ccc2nccc(N/N=C/c3ccc4c(c3)OCO4)c2c1 | 100 | 2.4 µM | –
25 | COc1ccc(/C=N/Nc2cc(C)nc3cc4c(cc23)OCO4)cc1OC | 100 | – | –
26 | COc1ccc2nccc(N/N=C/c3ccc(N(C)C)cc3)c2c1 | 100 | 19.5 µM | –
27 | COc1ccc2nc(C)cc(N/N=C/c3ccc4c(c3)OCO4)c2c1 | 100 | 4.8 µM | –
28 | COc1ccc2c(N/N=C/c3ccc4c(c3)OCO4)ccnc2c1 | 100 | 9.7 µM | –
29 | COc1cccc2c(N/N=C/c3cccc4ccccc34)ccnc12 | 100 | – | –
30 | COc1cccc2c(N/N=C/c3ccc4ccccc4n3)ccnc12 | 99 | 4.8 µM | IC50 [3]: 1.68 µg/mL (≈ 5.12 µM); Selectivity Index [4]: 1.08
31 | COc1ccc2c(N/N=C/c3ccc4ccccc4n3)cc(C)nc2c1 | 100 | 4.6 µM | IC50 [3]: 0.12 µg/mL (≈ 0.35 µM); Selectivity Index [4]: 0.08
32 | Cc1cc(N/N=C/c2ccc(F)cc2)c2cc3c(cc2n1)OCO3 | 100 | 19.3 µM | –
33 | COc1ccc(/C=N/Nc2cc(C)nc3ccc(OC)cc23)cc1 | 100 | 4.8 µM | –
34 | Cc1cc(N/N=C/c2ccncc2)c2cc3c(cc2n1)OCO3 | 87 | – | –
35 | CCOc1ccc2c(N/N=C/c3ccc(OC)cc3)cc(C)nc2c1 | 20 | – | –
36 | Cc1cc(N/N=C/c2ccnc3ccccc23)c2cc3c(cc2n1)OCO3 | 100 | – | –
37 | COc1cccc2c(N/N=C/c3ccc4c(c3)OCO4)ccnc12 | 31 | – | –
38 | COc1cccc2c(N/N=C/c3ccccc3)ccnc12 | 99 | 11.3 µM | –
39 | COc1ccc2c(N/N=C/c3ccc4ccccc4c3)ccnc2c1 | 100 | 0.6 µM | IC50 [3]: 0.454 µg/mL (≈ 1.39 µM); Selectivity Index [4]: 2.27
40 | Cc1cc(N/N=C/c2cccc(O)c2)c2cc3c(cc2n1)OCO3 | 100 | – | –

Row | Compound | inhibition at 6.25 µg/mL [1] [%] | MIC [2] | also measured
41 | Cc1cc(N/N=C/c2ccccc2)c2cc3c(cc2n1)OCO3 | 100 | 2.6 µM and 0.5 µg/mL | Activity [9]: Dose-dependent effect; MIC [5]: 0.12 µg/mL (≈ 0.393 µM); MIC [6]: 0.25 µg/mL (≈ 0.819 µM); Activity [10]: Toxic; MIC [7]: 0.12 µg/mL (≈ 0.393 µM); MIC [8]: 1 µg/mL (≈ 3.28 µM)
42 | COc1cccc2c(N/N=C/c3ccc4ccccc4n3)cc(C)nc12 | 100 | 4.7 µM | IC50 [3]: 3.11 µg/mL (≈ 9.08 µM); Selectivity Index [4]: 1.99
43 | COc1ccc(/C=N/Nc2cc(C)nc3cc4c(cc23)OCO4)c2ccccc12 | 100 | 4 µM | IC50 [3]: 0.24 µg/mL (≈ 0.623 µM); Selectivity Index [4]: 0.15
44 | COc1ccc2cc(/C=N/Nc3ccnc4cc(OC)ccc34)ccc2c1 | 100 | 0.6 µM | IC50 [3]: 0.211 µg/mL (≈ 0.59 µM); Selectivity Index [4]: 1.05
45 | Cc1cc(N/N=C/c2ncc[nH]2)c2cc3c(cc2n1)OCO3 | 100 | 5.3 µg/mL | IC50 [3]: > 100 µg/mL; Selectivity Index [4]: >66
46 | CCOc1ccc2c(N/N=C/c3ccc4c(c3)OCO4)cc(C)nc2c1 | 98 | 9 µM | –
47 | Cc1cc(N/N=C/c2ccc3c(c2)OCO3)c2cc3c(cc2n1)OCO3 | 100 | 4.5 µM | IC50 [3]: 0.22 µg/mL (≈ 0.63 µM); Selectivity Index [4]: 0.14
48 | COc1ccc2c(/C=N/Nc3ccnc4cc(OC)ccc34)ccnc2c1 | 100 | 2.2 µM | –
49 | COc1ccc2cc(/C=N/Nc3cc(C)nc4cc5c(cc34)OCO5)ccc2c1 | 100 | – | –
50 | COc1ccc2nc(C)cc(N/N=C/c3ccc(N(C)C)cc3)c2c1 | 100 | 9.4 µM | –
51 | CCOc1ccc2c(N/N=C/c3ccncc3)ccnc2c1 | 26 | – | –
52 | COc1ccc2c(N/N=C/c3ccc(O)cc3)ccnc2c1 | 100 | 5.3 µM | IC50 [3]: 3.66 µg/mL (≈ 12.5 µM); Selectivity Index [4]: 2.53
53 | COc1ccc2c(N/N=C/c3ccnc4ccccc34)cc(C)nc2c1 | 100 | 4.6 µM | –
54 | CCOc1ccc2c(N/N=C/c3ccc4c(c3)OCO4)ccnc2c1 | 48 | – | –
55 | CCOc1ccc2c(N/N=C/c3ccncc3)cc(C)nc2c1 | 78 | – | –
56 | COc1ccc2c(N/N=C/c3ccccc3)ccnc2c1 | 100 | 16.4 µM | –
57 | COc1ccc2c(N/N=C/c3cccc(O)c3)ccnc2c1 | 100 | 2.7 µM | IC50 [3]: 1.09 µg/mL (≈ 3.72 µM); Selectivity Index [4]: 1.59
58 | Cc1cc(N/N=C/c2ccc[nH]2)c2cc3c(cc2n1)OCO3 | 100 | 10.6 µM | –
59 | COc1ccc2nccc(N/N=C/C3CCCCC3)c2c1 | 99 | 11.1 µM | IC50 [3]: 5.03 µg/mL (≈ 17.8 µM); Selectivity Index [4]: 3.44
60 | COc1ccc2c(N/N=C/c3ccnc4ccccc34)ccnc2c1 | 100 | 9.5 µM | –
